Data as given in patent US5245050A, “Derivatives of physiologically active substance ML-236B and process for production thereof” (Tobishi Yakuhin Kogyo Kabushiki Kaisha, priority 1988, dated 1993).

Molecular target: T1, HMG-CoA reductase (Rattus norvegicus, UniProt P51639)
T1 construct: 0.6 mg/ml of rat liver microsome fraction; from tissue; host or cells: rat liver (microsome fraction)
T1 sequence (P51639 1-887): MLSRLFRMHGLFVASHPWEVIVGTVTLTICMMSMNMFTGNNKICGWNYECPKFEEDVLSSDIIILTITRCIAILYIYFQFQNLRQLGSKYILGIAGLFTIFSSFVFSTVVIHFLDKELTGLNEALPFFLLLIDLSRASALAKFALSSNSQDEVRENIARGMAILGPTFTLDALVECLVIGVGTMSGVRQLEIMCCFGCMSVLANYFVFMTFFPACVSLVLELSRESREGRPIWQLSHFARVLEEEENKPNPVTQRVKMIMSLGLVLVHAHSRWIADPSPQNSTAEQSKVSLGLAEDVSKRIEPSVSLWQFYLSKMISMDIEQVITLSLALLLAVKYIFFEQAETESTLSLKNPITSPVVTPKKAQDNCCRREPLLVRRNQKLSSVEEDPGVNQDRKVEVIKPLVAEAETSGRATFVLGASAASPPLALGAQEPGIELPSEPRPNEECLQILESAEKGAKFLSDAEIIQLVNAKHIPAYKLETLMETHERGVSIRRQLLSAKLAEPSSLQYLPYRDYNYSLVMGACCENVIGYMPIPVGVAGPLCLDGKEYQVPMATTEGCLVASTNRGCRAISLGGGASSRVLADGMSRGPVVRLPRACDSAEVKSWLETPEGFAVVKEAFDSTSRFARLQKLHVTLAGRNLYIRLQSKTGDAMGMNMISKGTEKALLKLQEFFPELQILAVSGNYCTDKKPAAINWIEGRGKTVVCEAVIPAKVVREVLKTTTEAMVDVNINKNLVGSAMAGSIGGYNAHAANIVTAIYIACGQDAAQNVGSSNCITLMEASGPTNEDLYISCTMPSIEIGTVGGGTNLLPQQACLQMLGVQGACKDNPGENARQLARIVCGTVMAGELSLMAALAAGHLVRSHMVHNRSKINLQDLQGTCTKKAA
Experiment: HMG-CoA reductase inhibitory activity ([14C]HMG-CoA to [14C]mevalonic acid, rat liver microsome fraction)
Format: biochemical
Conditions: for remaining activity at 0.1 µg/mL: 0.1 μg/ml; for IC50: rat liver microsome fraction, 37° C., 30 minutes, read-out: I50 (amount of sample necessary to inhibit the HMG-CoA reductase activity to 50%) (converted); for remaining activity at 10 µg/mL: 10 μg/ml
Experimental: The HMG-CoA reductase activity can be determined by using [^14 C] HMG-CoA as a substrate and measuring the resulting [^14 C] mevalonic acid (Kuroda and Endo, Biochem Biophys Acta, 486, 70-81), as described in detail in the following.
A reaction mixture contains 100 mM of potassium phosphate buffer (pH 7.4), 10 mM of EDTA, 10 mM of dithiothreitol, 10 mM of NADPH, 0.11 mM of DL-[3-^14 C] HMG-CoA (4.5 mCi/mmol), and 0.6 mg/ml of rat liver microsome fraction. The final volume of reaction mixture is 50 μl including 1 μl of a methanol solution of a test sample. A reaction is started by adding the substrate HMG-CoA, continued at 37° C. for 30 minutes, and terminated by adding 10 μl of 2N hydrochloric acid solution To this reaction mixture is added 20 μl of 100 mM [5-^3 H] mevaronic acid (22.7 μCi/mmol), and the reaction is carried out at 37° C. for a further 15 minutes. Using 40 μl of this reaction mixture as a carrier, 5 μl of 200 mM mevaronic acid (lactone type) is spotted on a silica gel plate, and after development by benzene/acetone (1:1) mixture, a spot of mevaronic acid is peeled off and suspended in a liquid scintillator to measure the radio activity thereof. The inhibitory activity is expressed by an amount of a sample necessary to inhibit the HMG-CoA reductase activity to 50% (I50 value).

[1] = read-out: Enzyme activity (% relating to control)

## CCC(C)C(=O)OC1CCC2C(F)(F)C23C=CC(C)C(CCC2CC(O)CC(=O)O2)C13 (stereo not drawn) [(1)]
[1]
  remaining activity at 0.1 µg/mL: 74%
1 μg/ml, read-out: Enzyme activity (% relating to control)
  remaining activity at 1 µg/mL: 27%
  IC50: 681 nM

## CCC(C)C(=O)OC1CCC2CC23C=CC(C)C(CCC2CC(O)CC(=O)O2)C13 (stereo not drawn) [(4)]
[1]
  remaining activity at 0.1 µg/mL: 63%
  remaining activity at 10 µg/mL: 7.6%
  IC50: 544 nM

## CCC(C)C(=O)OC1CCC2C(Cl)(Cl)C23C=CC(C)C(CCC(O)CC(O)CC(N)=O)C13 (stereo not drawn) [(7)]
[1]
  remaining activity at 0.1 µg/mL: 98%
  remaining activity at 10 µg/mL: 30%
  IC50: > 2040 nM

## CCC(C)C(=O)OC1CCC2C(Cl)C23C=CC(C)C(CCC2CC(O)CC(=O)O2)C13 (stereo not drawn) [Compound (6)]
[1]
  remaining activity at 0.1 µg/mL: 71%
  remaining activity at 10 µg/mL: 4.7%
  IC50: 683 nM
